Test results as given in patent US9296734B2 (AMGEN INC., priority 2013, dated 2016).
Like-named read-outs stand apart in the source and are kept apart here.

How the values were obtained:
[1] = target: Beta Secretase enzyme (BACE) (Homo sapiens (Human), UniProt P56817); test: In vitro enzymatic BACE FRET assay; assay type: biochemical; conditions: read-out: BACE 1 FRET assay IC50
Summary of the method: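 Reactions ran in 0.05 M acetate pH 4.2 with 10% DMSO final and 100 uM genapol. They were started with 50 nM peptide FRET substrate (fluorophore and quencher flanking the BACE cleavage site) and incubated one hour. Tris addition raised the pH to neutral to stop the reaction before fluorescence reading.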

[2] = system: Aβ40 in conditioned medium of cells stably expressing Amyloid Precursor Protein (APP); test: In vitro BACE cell-based assay (Aβ40 sandwich ELISA); conditions: Homo sapiens
Summary of the method: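 Secreted Aβ40 was quantified by sandwich ELISA (pAb40 capture, biotinylated 6E10 detection, Europium time-resolved fluorescence). IC50 derived from percent inhibition versus concentration.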

Cathepsin D (Cat D) = Cathepsin D (Cat D) (Homo sapiens (Human), UniProt P07339); test: In vitro enzymatic Cathepsin D (Cat D) FRET assay; assay type: biochemical; conditions: read-out: CatD IC50
Chain of Cathepsin D (Cat D) (P07339 65-412, species assumed): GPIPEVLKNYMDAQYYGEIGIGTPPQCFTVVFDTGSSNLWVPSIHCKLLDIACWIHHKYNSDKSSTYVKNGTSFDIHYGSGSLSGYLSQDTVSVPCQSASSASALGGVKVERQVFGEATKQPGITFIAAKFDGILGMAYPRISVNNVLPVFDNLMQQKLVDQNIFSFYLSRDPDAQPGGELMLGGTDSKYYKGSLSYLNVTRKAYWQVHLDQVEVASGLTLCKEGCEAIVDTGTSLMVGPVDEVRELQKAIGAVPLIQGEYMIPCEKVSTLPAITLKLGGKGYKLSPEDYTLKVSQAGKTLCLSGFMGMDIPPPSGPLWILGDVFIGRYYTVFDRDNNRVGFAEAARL
Summary of the method: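 CHO-expressed recombinant Cat D cleaves a fluorophore/quencher FRET peptide (20 nM) in 0.05 M citrate pH 3.5, 5 mM CHAPS, 10% DMSO final, over 1 h. Tris addition neutralizes pH to stop the reaction; fluorescence read at excitation 500 nm, emission 580 nm.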

[3] = HEK293, average IC50, HEK cells, read-out: HEK cell assay IC50
[4] = HEK293, HEK cells, average, read-out: HEK cell assay IC50
[5] = average IC50, BACE enzyme assay
[6] = HEK293, average IC50, HEK cell assay, read-out: HEK cell assay IC50
[7] = average IC50, cathepsin D enzyme assay
[8] = HEK293, read-out: HEK cell assay IC50

Chain of Beta Secretase enzyme (BACE) (P56817 46-501): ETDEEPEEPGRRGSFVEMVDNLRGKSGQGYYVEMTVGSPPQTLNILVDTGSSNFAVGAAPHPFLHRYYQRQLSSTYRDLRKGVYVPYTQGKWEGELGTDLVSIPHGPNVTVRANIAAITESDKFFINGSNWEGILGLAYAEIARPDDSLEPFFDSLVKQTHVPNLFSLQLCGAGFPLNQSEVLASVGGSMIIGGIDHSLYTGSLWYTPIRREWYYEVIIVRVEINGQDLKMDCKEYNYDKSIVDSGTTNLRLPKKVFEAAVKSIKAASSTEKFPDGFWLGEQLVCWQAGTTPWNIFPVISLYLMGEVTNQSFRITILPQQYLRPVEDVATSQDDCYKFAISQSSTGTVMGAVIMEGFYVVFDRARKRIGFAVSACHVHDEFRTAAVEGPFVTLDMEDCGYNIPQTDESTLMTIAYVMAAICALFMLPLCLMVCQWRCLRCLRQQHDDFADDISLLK

| Compound | IC50 ([1]; average IC50) [µM] | IC50 [2, 3] [µM] | IC50 (Cathepsin D (Cat D); average IC50) [µM] | IC50 ([1]; average) [µM] | IC50 [2, 4] [µM] | IC50 (Cathepsin D (Cat D); average) [µM] | other results |
| --- | --- | --- | --- | --- | --- | --- | --- |
| Cc1cc(Cl)cnc1C(=S)Nc1ccc(F)c([C@]2(CF)C[C@@H](C(F)(F)F)OC(N)=N2)c1 [Example 90, N-(3-((4S,6S)-2-amino-4-(fluoromethyl)-6-(trifluoromethyl)-5,6-dihydro-4H-1,3-oxazin-4-yl)-4-fluorophenyl)-5-chloro-3-methylpyridine-2-carbothioamide] | 1.76 | 0.909 | > 400 |  |  |  |  |
| C[C@@]1(c2cc(NC(=O)c3cnc(OCC(F)(F)F)cn3)cc(Cl)c2F)C[C@@H](C(F)(F)F)OC(N)=N1 [Example 214, N-(3-((4S,6S)-2-amino-4-methyl-6-(trifluoromethyl)-5,6-dihydro-4H-1,3-oxazin-4-yl)-5-chloro-4-fluorophenyl)-5-(2,2,2-trifluoroethoxy)pyrazine-2-carboxamide] |  |  |  | 0.008 | 0.029 | > 400 |  |
| C[C@@]1(c2cc(NC(=O)c3ccc(C#N)cn3)cc(Cl)c2F)C[C@@H](C(F)(F)F)OC(N)=N1 [Example 206, N-(3-((4S,6S)-2-amino-4-methyl-6-(trifluoromethyl)-5,6-dihydro-4H-1,3-oxazin-4-yl)-5-chloro-4-fluorophenyl)-5-cyanopicolinamide] |  |  |  | 0.023 | 0.012 | 488 |  |
| C[C@@]1(c2cc(Nc3nc4cc(Cl)ccc4o3)ccc2F)C[C@@H](C(F)(F)F)OC(N)=N1 [Example 30, N-(3-((4S,6S)-2-amino-4-methyl-6-(trifluoromethyl)-5,6-dihydro-4H-1,3-oxazin-4-yl)-4-fluorophenyl)-5-chlorobenzo[d]oxazol-2-amine] |  |  |  |  |  |  | IC50 [1, 5]: 26.8 µM; IC50 [2, 6]: 2.88 µM; IC50 (Cathepsin D (Cat D); [7]): 162 µM |
| Cc1c(C(=O)Nc2ccc(F)c([C@]3(CF)C[C@@H](C(F)(F)F)OC(N)=N3)c2)nc2ccc(Cl)cn12 [Example 6, N-(3-((4S,6S)-2-amino-4-(fluoromethyl)-6-(trifluoromethyl)-5,6-dihydro-4H-1,3-oxazin-4-yl)-4-fluorophenyl)-6-chloro-3-methylimidazo[1,2-a]pyridine-2-carboxamide] | 0.036 | 0.0522 | > 400 |  |  |  |  |
| C[C@@]1(c2cc(Nc3ncnc4cc(C#N)cnc34)cnc2F)C[C@@H](C(F)(F)F)OC(N)=N1 [Example 75, 4-((5-((4S,6S)-2-amino-4-methyl-6-(trifluoromethyl)-5,6-dihydro-4H-1,3-oxazin-4-yl)-6-fluoropyridin-3-yl)amino)pyrido[3,2-d]pyrimidine-7-carbonitrile] | 0.368 | 0.0912 | > 400 |  |  |  |  |
| Cc1cc(C#N)cnc1C(=O)Nc1cnc(F)c([C@]2(CF)C[C@@H](C(F)(F)F)OC(N)=N2)c1 [Example 140, N-(5-((4S,6S)-2-amino-4-(fluoromethyl)-6-(trifluoromethyl)-5,6-dihydro-4H-1,3-oxazin-4-yl)-6-fluoropyridin-3-yl)-5-cyano-3-methylpicolinamide] | 0.113 | 0.338 | > 400 |  |  |  |  |
| C#Cc1ccc(-c2ccc(F)c([C@]3(CF)C[C@@H](C(F)(F)F)OC(N)=N3)c2)cn1 [Example 112, (4S,6S)-4-(5-(6-ethynylpyridin-3-yl)-2-fluorophenyl)-4-(fluoromethyl)-6-(trifluoromethyl)-5,6-dihydro-4H-1,3-oxazin-2-amine] |  |  |  |  |  |  | IC50 [1, 5]: > 40 µM; IC50 [2, 6]: > 15.6 µM; IC50 (Cathepsin D (Cat D); [7]): > 400 µM |
| C[C@@]1(c2cc(NC(=O)c3ncc(C(F)(F)F)cc3Cl)cc(F)c2F)C[C@@H](C(F)(F)F)OC(N)=N1 [Example 187, N-(3-((4S,6S)-2-amino-4-methyl-6-(trifluoromethyl)-5,6-dihydro-4H-1,3-oxazin-4-yl)-4,5-difluorophenyl)-3-chloro-5-(trifluoromethyl)picolinamide] |  |  |  | 0.075 | 0.015 | > 400 |  |
| COc1cnc(C(=O)Nc2cc(C)c(F)c([C@]3(CF)C[C@@H](C(F)(F)F)OC(N)=N3)c2)c(C)c1 [Example 226, N-(3-((4S,6S)-2-amino-4-(fluoromethyl)-6-(trifluoromethyl)-5,6-dihydro-4H-1,3-oxazin-4-yl)-4-fluoro-5-methylphenyl)-5-methoxy-3-methylpicolinamide] |  |  |  | 0.048 | 0.049 | 780 |  |
| N#Cc1cccnc1Oc1ccc(F)c([C@]2(CF)C[C@@H](C(F)(F)F)OC(N)=N2)c1 [Example 107, 2-(3-((4S,6S)-2-amino-4-(fluoromethyl)-6-(trifluoromethyl)-5,6-dihydro-4H-1,3-oxazin-4-yl)-4-fluorophenoxy)nicotinonitrile] | 5.87 |  | 1400 |  |  |  | IC50 [2, 8]: 3.61 µM |
| COCc1cc(Cl)cnc1C(=O)Nc1cc(F)c(F)c([C@]2(C)C[C@@H](C(F)(F)F)OC(N)=N2)c1 [Example 199, N-(3-((4S,6S)-2-amino-4-methyl-6-(trifluoromethyl)-5,6-dihydro-4H-1,3-oxazin-4-yl)-4,5-difluorophenyl)-5-chloro-3-(methoxymethyl)picolinamide] |  |  |  | 0.016 | 0.013 | 1710 |  |
| C[C@@]1(c2cc(NC(=O)c3ncc(C#N)cc3F)cc(F)c2F)C[C@@H](C(F)(F)F)OC(N)=N1 [Example 205, N-(3-((4S,6S)-2-amino-4-methyl-6-(trifluoromethyl)-5,6-dihydro-4H-1,3-oxazin-4-yl)-4,5-difluorophenyl)-5-cyano-3-fluoropicolinamide] |  |  |  | 0.039 | 0.01 | > 400 |  |
| NC1=N[C@](CF)(c2cc(-c3nc4ccc(Cl)cc4o3)ccc2F)C[C@@H](C(F)(F)F)O1 [Example 105, (4S,6S)-4-(5-(6-chlorobenzo[d]oxazol-2-yl)-2-fluorophenyl)-4-(fluoromethyl)-6-(trifluoromethyl)-5,6-dihydro-4H-1,3-oxazin-2-amine] |  |  |  |  |  |  | IC50 [1, 5]: 0.542 µM; IC50 [2, 8]: 2.81 µM; IC50 (Cathepsin D (Cat D); [7]): > 44.4 µM |
| COc1cnc(C(=O)Nc2cc(C)c(F)c([C@]3(CF)C[C@@H](C(F)(F)F)OC(N)=N3)c2)c(C)n1 [Example 217, N-(3-((4S,6S)-2-amino-4-(fluoromethyl)-6-(trifluoromethyl)-5,6-dihydro-4H-1,3-oxazin-4-yl)-4-fluoro-5-methylphenyl)-5-methoxy-3-methylpyrazine-2-carboxamide] |  |  |  | 0.081 | 0.038 | 634 |  |
| C#CCOc1cnc(C(=O)Nc2ccc(F)c([C@]3(C)C[C@@H](C(F)(F)F)OC(N)=N3)n2)cn1 [Example 87, N-(6-((4S,6S)-2-amino-4-methyl-6-(trifluoromethyl)-5,6-dihydro-4H-1,3-oxazin-4-yl)-5-fluoropyridin-2-yl)-5-(prop-2-yn-1-yloxy)pyrazine-2-carboxamide] | 0.0254 | 0.0084 | 609 |  |  |  |  |
| C[C@@]1(c2cc(NC(=O)c3ncc(Cl)cc3Cl)cc(F)c2F)C[C@@H](C(F)(F)F)OC(N)=N1 [Example 172, N-(3-((4S,6S)-2-amino-4-methyl-6-(trifluoromethyl)-5,6-dihydro-4H-1,3-oxazin-4-yl)-4,5-difluorophenyl)-3,5-dichloropicolinamide] |  |  |  |  |  |  | IC50 [1, 5]: 0.019 µM; IC50 [2, 6]: 0.019 µM; IC50 (Cathepsin D (Cat D); [7]): 394 µM |
| Cc1cc(NC(=O)c2ccc(C#N)cn2)cc([C@]2(CF)C[C@@H](C(F)(F)F)OC(N)=N2)c1F [Example 225, N-(3-((4S,6S)-2-amino-4-(fluoromethyl)-6-(trifluoromethyl)-5,6-dihydro-4H-1,3-oxazin-4-yl)-4-fluoro-5-methylphenyl)-5-cyanopicolinamide] |  |  |  | 0.057 | 0.024 | > 400 |  |
| C[C@@]1(c2cc(NC(=O)c3ccc(F)cn3)cnc2F)C[C@@H](C(F)(F)F)OC(N)=N1 [Example 64, N-(5-((4S,6S)-2-amino-4-methyl-6-(trifluoromethyl)-5,6-dihydro-4H-1,3-oxazin-4-yl)-6-fluoropyridin-3-yl)-5-fluoropicolinamide] |  |  |  |  |  |  | IC50 [1, 5]: 0.206 µM; IC50 [2, 6]: 0.038 µM; IC50 (Cathepsin D (Cat D); [7]): > 400 µM |
| C[C@@]1(c2cc(NC(=O)c3nn(C(F)F)cc3Cl)cnc2F)C[C@@H](C(F)(F)F)OC(N)=N1 [Example 72, N-(5-((4S,6S)-2-amino-4-methyl-6-(trifluoromethyl)-5,6-dihydro-4H-1,3-oxazin-4-yl)-6-fluoropyridin-3-yl)-4-chloro-1-(difluoromethyl)-1H-pyrazole-3-carboxamide] |  |  |  |  |  |  | IC50 [1, 5]: 0.024 µM; IC50 [2, 6]: 0.031 µM; IC50 (Cathepsin D (Cat D); [7]): 844 µM |
| NC1=N[C@](CF)(c2cc(Oc3cnccn3)ccc2F)C[C@@H](C(F)(F)F)O1 [Example 92, (4S,6S)-4-(2-fluoro-5-(pyrazin-2-yloxy)phenyl)-4-(fluoromethyl)-6-(trifluoromethyl)-5,6-dihydro-4H-1,3-oxazin-2-amine] | 1.64 | 1.65 | > 400 |  |  |  |  |
| NC1=N[C@](CF)(c2cc(NC(=O)c3ccc(F)cn3)ccc2F)C[C@@H](C(F)(F)F)O1 [Example 57, N-(3-((4S,6S)-2-amino-4-(fluoromethyl)-6-(trifluoromethyl)-5,6-dihydro-4H-1,3-oxazin-4-yl)-4-fluorophenyl)-5-fluoropicolinamide] | 0.0725 | 0.106 | 4060 |  |  |  |  |
